# Data: patent US20110028566A1, “COMPOSITIONS AND PRODUCTS CONTAINING CYCLOALIPHATIC DIOL ANTIMICROBIAL AGENTS AND METHODS OF USING THE COMPOSITIONS AND PRODUCTS” (EASTMAN CHEMICAL COMPANY, priority 2009, published 2011)
# Columns and labels:
# Type in all cases: cell-based
# [1] = tested on: Corynebacterium xerosis ATCC #373; assay: Synergy testing in brain heart infusion media, 96-well plates; conditions: for % CHDM: relative to CHDM alone; for SI: synergy index
# Protocol: MICs were determined using a high-throughput microplate method. Individual antimicrobial agents were added to TSB (pH 7.3) for bacterial testing or SDB (pH 5.6) for fungal testing at the highest concentration to be tested. A serial dilution series was prepared at a dilution ratio of 1:1.3333 such that a one log range was covered in nine dilutions. Two-hundred microliters of the diluted antimicrobial agents were dispensed into four wells each of a sterile, 96-well, flat-bottom microplate (Nalge Nunc International). Four additional wells of the highest concentration were dispensed to serve as uninoculated high-level controls. Eight additional wells containing only broth medium were also prepared, four to serve as negative controls and four as positive controls. Three wells of each antimicrobial agent dilution were inoculated with one of the test strains in Table 7. The final well of each antimicrobial agent dilution was left uninoculated to serve as a control (and means of compensating) for any absorbance/turbidity due to the test compounds.
# The individual antimicrobial agents listed in Table 8 were tested in combination with CHDM. The MIC values determined in the individual antimicrobial agent testing described above were used to establish a target MIC. In each experiment, MIC values for the individual antimicrobial agents and CHDM were determined in order to eliminate any variability due to comparison of data from different dates. Testing was done over a range of four concentrations separated by a factor of 1.3333 as described above. The four concentrations were the target MIC plus one dilution level higher and two dilution levels lower than the target. Combinations of antimicrobial agents and CHDM were made at 50% of the target MIC values and the higher and lower individual levels. Additionally, 50% level series were also tested with the antimicrobial agent or CHDM at one dilution level lower than the target level. The method of Kull et. al. (F. C. Kull et al., Applied Microbiology, 9, p 538-541 (1961)) was used to determine whether there was synergistic activity between CHDM and each antimicrobial agent for inhibition of each of the five microbes. MICs for the individually-tested CHDM and antimicrobial agent, as well as the concentration of CHDM and antimicrobial agent in the combination MIC were used to calculate a synergy index (SI) according to the equation: […]
# where Qa and Qb are the minimum inhibitory concentrations for CHDM and a antimicrobial agent, respectively, when tested independently, and QA and QB are the concentrations of CHDM and a antimicrobial agent, respectively, in combination at an inhibitory concentration. Accordingly, synergy is defined as a SI less than one.
# Experiments were also conducted using Corynebacterium xerosis, which is a bacterium known to cause body odor. […] The Corynebacterium xerosis bacterium used in this example was ATCC #373. The seed culture was grown in brain heart infusion medium. Assays were performed in brain heart infusion media in 96-well plates as described in Example 2. The brain heart infusion medium was at a pH of about 7.4. All growth was conducted at 37° C.
# Pseudomonas aeruginosa = assay: Test for adequate preservation in skin cream formulation (microorganism counts); conditions: skin cream emulsion pH 6.75; concentration in label
# Protocol: A test for adequate preservation was carried out in accordance with the European Pharmacopea (6.0) and United States Pharmacopea (5.1). The testing consisted of the inoculation of a skin cream formulation serving as an emulsion substrate. The skin cream formulation having a pH of 6.75 was as follows: […]
# This skin cream was the emulsion substrate, which formed the base for all further experimentation.
# For Examples 3.1 through 3.10, 390.0 g cream were weighed into a 600-ml beaker. The cream was stirred at room temperature while adding the ingredients specified in Table 51. Each sample was stirred for 2 hours, then placed in the refrigerator until inoculated.
# For Examples 3.11 and 3.12, 179.4 g cream were weighed into a 400-ml beaker. The cream was stirred at room temperature while adding the specified ingredients.
# The samples of Examples 3.1 through 3.10 were challenged with specific organisms (see Table 51) to produce a contamination of between 1.0×10^5 cfu/g and 1.0×10^6 cfu/g. The actual inoculation counts resulting from these challenges were immediately determined by diluting in sterile buffered water and (spread plate method) plating for enumeration.
# Challenge organisms were prepared in Mueller-Hinton broth, allowed to grow for 72 hours at 35° C.+/−2° C., centrifuged at 2500 rpm for 5 minutes, and the supernatant broth was removed. The microbial pellet was then re-diluted with sterile buffered water to a turbidity that matched previous 1.0×10^8 cfu/g concentrations of that organism's specific growth curve.
# The test emulsions were maintained within a specific temperature range optimal for the organisms; 35° C.+/2° C. for the bacteria and 22° C.+/−2° C. for the fungi, for the first three days. They were kept at ambient room temperature for the subsequent time periods.
# Subculture samples of approximately 1 gram were taken for counts at 7, 14, and 30 days and incubated under optimal conditions and nutrition for no less than 5 days. Subcultures were diluted 1:2, 1:10, 1:100, . . . , 1:10,000 and plated using the spread plate method onto Plate Count Agar and onto SAB Dextrose Agar for the Candida and Aspergillus species; and incubated as follows: 35° C.+/−2° C. for the Plate Count Agar and 22° C.+/−2° C. for the SAB Dextrose plates of Candida albicans and Aspergillus niger. Negative results were not reported before 7 days incubation, and counts were performed after no less than 5 days incubation. Because of the high viscosity of the test emulsion, at least a 1:2 dilution was required to perform the spread plate subcultures. 0-30 counts represent a 1 to 2 dilution, numbers […] a 1:10 dilution; and the rest represent dilutions of 1:100, 1:1000, or 1:10,000. […]
# [2] = tested on: biodiesel-acclimated bioslime; assay: 15-day biofouling control in B-100 biodiesel:Bushnell-Haas broth, visual turbidity; parameters: key to Growth (visual turbidity rating): 0 = No Growth; 1 = Slight Growth; 2 = Moderate Growth; 3 = Heavy Growth; conditions: 15 days, 22° C.; for Enhancement of the preservative (inhibitory) action of Killem biocide (in words): B-100 biodiesel, bioslime or trivalent bacterial-fungal inocula (Tables 54 & 55); for Growth (visual turbidity rating): biocide 0 mg/L, bioslime inoculum 50 uL
# Protocol: Antimicrobial efficacy data (Table 54 & Table 55) were obtained for 1,4-CHDM with and without biocide in protection of B-100 biodiesel from microbial growth derived via either biodiesel-acclimated bioslime or trivalent bacterial-fungal inocula after 15-day exposure at 22° C. This testing was via a visual turbidity methodology. Neither micro-liter plates nor automatic plate reader could be used in this experiment due to the inherent biphasic nature of the system. B-100 biodiesel:Bushnell-Haas broth was used, which is a minimal salts medium specially designed for evaluating growth of microorganisms on hydrocarbons. Samples were evaluated visually (i.e., the more the turbidity, the more the growth, the less the turbidity, the less the growth, and no turbidity means no growth).
compound,measurement,setting,value
"OCC1CCC(CO)CC1 (centres unmarked) [1,4-CHDM, 1,4-cyclohexanedimethanol]",% CHDM,"[1]; Day 2, CHDM with EHG",100.0%
same,% CHDM,"[1]; Day 2, CHDM with TRI",100.0%
same,QA/a (CHDM),"[1]; Day 2, inhibitory concentration of CHDM alone or in combination with EHG, plate EX194-195-EHG-Syn1",2.110
same,QA/a (CHDM),"[1]; Day 2, inhibitory concentration of CHDM alone or in combination with TRI, plate EX194-195-TRI-Syn1",2.110
same,SI,"[1]; Day 2, CHDM with EHG",1.00
same,SI,"[1]; Day 2, CHDM with TRI",1.00
same,% CHDM,"[1]; Day 3, CHDM with EHG",100.0%
same,% CHDM,"[1]; Day 3, CHDM with TRI",100.0%
same,QA/a (CHDM),"[1]; Day 3, inhibitory concentration of CHDM alone or in combination with EHG, plate EX194-195-EHG-Syn1",2.110
same,QA/a (CHDM),"[1]; Day 3, inhibitory concentration of CHDM alone or in combination with TRI, plate EX194-195-TRI-Syn1",2.110
same,SI,"[1]; Day 3, CHDM with EHG",1.00
same,SI,"[1]; Day 3, CHDM with TRI",1.00
same,Antimicrobial activity against Pseudomonas aeruginosa in skin cream (in words),Pseudomonas aeruginosa,significant activity
same,Enhancement of the preservative (inhibitory) action of Killem biocide (in words),"[2]; Killem biocide 200 ppm, 1,4-CHDM 0.2-0.5 wt %",enhanced the preservative (inhibitory) action of the Killem biocide
same,Enhancement of the preservative (inhibitory) action of Killem biocide (in words),"[2]; biocide 50 ppm or 100 ppm, or 1,4-CHDM 0.1 wt %",No enhancement
same,Growth (visual turbidity rating),"[2]; 1,4-CHDM 0.1% (v/v)",3
same,Growth (visual turbidity rating),"[2]; 1,4-CHDM 0.2% (v/v)",3
same,Growth (visual turbidity rating),"[2]; 1,4-CHDM 0.3% (v/v)",3
same,Growth (visual turbidity rating),"[2]; 1,4-CHDM 0.4% (v/v)",3
same,Growth (visual turbidity rating),"[2]; 1,4-CHDM 0.5% (v/v)",3
